According to ChEMBL document CHEMBL3576778, “Structure-Activity Relationship Studies of a Series of Semisynthetic Lipopeptides Leading to the Discovery of Surotomycin, a Novel Cyclic Lipopeptide Being Developed for the Treatment of Clostridium difficile-Associated Diarrhea” (J Med Chem, 2015):
Values after ≈ are worked out from the molar mass of the structure shown.

Columns and labels:
Assay type in all cases: functional
Staphylococcus aureus = assay: Antimicrobial activity against daptomycin-susceptible Staphylococcus aureus ATCC 29213 incubated anaerobically at 37 degC for 48 hrs by agar dilution method; conditions: ATCC 29213, 48 h
Clostridioides difficile [1] = assay: Antimicrobial activity against daptomycin-resistant Clostridium difficile ATCC 43596 infected in Syrian golden hamster model of Clostridium difficile-associated diarrhea assessed as protection against microbial infection by measuring survival at day 25 to 26 at 0.5 mg/kg treated once daily for 5 consecutive days starting 4 hrs after spore inoculation
Enterococcus faecalis = assay: Antimicrobial activity against daptomycin-resistant Enterococcus faecalis ATCC 49452 incubated anaerobically at 37 degC for 48 hrs by agar dilution method; conditions: ATCC 49452, 48 h
Enterococcus faecium = assay: Antimicrobial activity against daptomycin-resistant Enterococcus faecium ATCC 6569 incubated anaerobically at 37 degC for 48 hrs by agar dilution method; conditions: ATCC 6569, 48 h
Clostridioides difficile [2] = assay: Antimicrobial activity against daptomycin-resistant Clostridium difficile NAP1 incubated anaerobically at 37 degC for 48 hrs by agar dilution method; conditions: NAP1, 48 h

| SMILES | MIC (Staphylococcus aureus) | survival at 0.5 mg/kg (Clostridioides difficile [1]) | MIC (Enterococcus faecalis) | MIC (Enterococcus faecium) | MIC (Clostridioides difficile [2]) |
| --- | --- | --- | --- | --- | --- |
| CCCCCCCCc1ccc(C(=O)N[C@@H](Cc2c[nH]c3ccccc23)C(=O)N[C@@H](CC(N)=O)C(=O)N[C@@H](CC(=O)O)C(=O)N[C@@H]2C(=O)NCC(=O)N[C@@H](CCCN)C(=O)N[C@H](CC(=O)O)C(=O)N[C@H](C)C(=O)N[C@@H](CC(=O)O)C(=O)NCC(=O)N[C@H](CO)C(=O)N[C@@H]([C@@H](C)CC(=O)O)C(=O)N[C@@H](CC(=O)c3ccccc3N)C(=O)O[C@@H]2C)cc1 | 0.5 µg/mL (≈ 0.297 µM) | 20% | 8 µg/mL (≈ 4.75 µM) | 4 µg/mL (≈ 2.38 µM) | 1 µg/mL (≈ 0.594 µM) |
| CCCCCCCc1ccc(C(=O)N[C@@H](Cc2c[nH]c3ccccc23)C(=O)N[C@@H](CC(N)=O)C(=O)N[C@@H](CC(=O)O)C(=O)N[C@@H]2C(=O)NCC(=O)N[C@@H](CCCN)C(=O)N[C@H](CC(=O)O)C(=O)N[C@H](C)C(=O)N[C@@H](CC(=O)O)C(=O)NCC(=O)N[C@H](CO)C(=O)N[C@@H]([C@@H](C)CC(=O)O)C(=O)N[C@@H](CC(=O)c3ccccc3N)C(=O)O[C@@H]2C)cc1 | 0.25 µg/mL (≈ 0.15 µM) | 80% | 8 µg/mL (≈ 4.79 µM) | 4 µg/mL (≈ 2.4 µM) | 0.5 µg/mL (≈ 0.3 µM) |
| CCCCC[C@H]1CC[C@H](C(=O)N[C@@H](Cc2c[nH]c3ccccc23)C(=O)N[C@@H](CC(N)=O)C(=O)N[C@@H](CC(=O)O)C(=O)N[C@@H]2C(=O)NCC(=O)N[C@@H](CCCN)C(=O)N[C@H](CC(=O)O)C(=O)N[C@H](C)C(=O)N[C@@H](CC(=O)O)C(=O)NCC(=O)N[C@H](CO)C(=O)N[C@@H]([C@@H](C)CC(=O)O)C(=O)N[C@@H](CC(=O)c3ccccc3N)C(=O)O[C@@H]2C)CC1 | 0.5 µg/mL (≈ 0.304 µM) | 60% | > 32 µg/mL | 16 µg/mL (≈ 9.72 µM) | 0.5 µg/mL (≈ 0.304 µM) |
